Experimental data published in ChEMBL document CHEMBL3108760, “Epigallocatechin 3-O-gallate induces 67 kDa laminin receptor-mediated cell death accompanied by downregulation of ErbB proteins and altered lipid raft clustering in mammary and epidermoid carcinoma cells” (J Nat Prod, 2014).
Active and inactive are the calls of the source. No cut-off for these calls is given here.

Experiments:
[1] = target: Receptor tyrosine-protein kinase erbB-2 (Homo sapiens) (UniProt P04626); experiment: Induction of ErbB2 internalization in lysosome/endosome of human A431 cells in serum free medium at 200 uM after 30 mins by immunofluorescence staining-based confocal microscopic analysis; format: cell-based; conditions: A-431
[2] = tested on: A-431; experiment: Induction of apoptosis in human A431 cells overexpressing ErbB in complete medium assessed as late apoptotic/necrotic cells at 75 uM after 72 hrs by annexin V-FITC/7-AAD staining-based flow cytometric analysis relative to control; format: functional
[3] = Downregulation of ErbB2 protein expression in human SKBR3 cells in serum free medium at 50 uM after 24 hrs by immunofluorescence staining-based flow cytometric analysis; format: functional, cell-based; conditions: SK-BR-3
[4] = tested on: A-431; experiment: Antiproliferative activity against anti-67LR treated human A431 cells overexpressing ErbB assessed as cell viability at 100 to 200 uM after 24 hrs by WST-1 staining-based spectrophotometric analysis; format: functional
[5] = tested on: A-431; experiment: Reduction of clustering of GFP-GPI in lipid rafts of human A431 cells at 100 uM after 12 hrs by confocal microscopic analysis; format: functional, cell-based
[6] = tested on: SK-BR-3; experiment: Reduction of clustering of GFP-GPI in lipid rafts of human SKBR3 cells at 100 uM after 12 hrs by confocal microscopic analysis; format: functional, cell-based
[7] = tested on: A-431; experiment: Cell cycle arrest in human A431 cells at 50 to 75 uM after 36 hrs by propidium iodide staining-based flow cytometric analysis; format: functional
[8] = target: Receptor tyrosine-protein kinase erbB-2 (Homo sapiens) (UniProt P04626); experiment: Induction of ErbB2 internalization in lysosome/endosome of human SKBR3 cells in serum free medium at 200 uM after 30 mins by immunofluorescence staining-based confocal microscopic analysis; format: cell-based; conditions: SK-BR-3
[9] = Downregulation of ErbB2 protein expression in human SKBR3 cells in serum free medium at 200 uM after 30 mins by immunofluorescence staining-based confocal microscopic analysis; format: functional, cell-based; conditions: SK-BR-3
[10] = tested on: A-431; experiment: Downregulation of ErbB1 protein expression in human A431 cells at 50 uM after 24 hrs by immunofluorescence staining-based flow cytometric analysis in presence of serum; format: functional, cell-based
[11] = tested on: SK-BR-3; experiment: Induction of apoptosis in human SKBR3 cells overexpressing ErbB in complete medium assessed as late apoptotic/necrotic cells at 75 uM after 72 hrs by annexin V-FITC/7-AAD staining-based flow cytometric analysis relative to control; format: functional
[12] = target: Small ribosomal subunit protein uS2 (Homo sapiens) (UniProt P08865); experiment: Inhibition of 67LR co-localization in lipid rafts containing cholera toxin labeled GM1 gangliosides in human A431 cells after 30 mins by immunofluorescence-based confocal microscopic analysis (reference value: 75%); format: cell-based; conditions: A-431
[13] = tested on: SK-BR-3; experiment: Ratio of EC50 for human SKBR3 cells overexpressing ErbB in complete medium to EC50 for human SKBR3 cells overexpressing ErbB in serum-free medium; format: functional
[14] = tested on: A-431; experiment: Antiproliferative activity against human A431 cells overexpressing ErbB in serum-free medium assessed as cell viability after 48 hrs by WST-1 assay; format: functional, cell-based; conditions: A-431, 48 h
[15] = Downregulation of ErbB2 protein expression in human SKBR3 cells at 50 uM after 24 hrs by immunofluorescence staining-based flow cytometric analysis in presence of serum; format: functional, cell-based; conditions: SK-BR-3
[16] = tested on: A-431; experiment: Downregulation of ErbB1 protein expression in human A431 cells in serum free medium at 200 uM after 30 mins by immunofluorescence staining-based confocal microscopic analysis; format: functional, cell-based
[17] = Cell cycle arrest in human SKBR3 cells at 50 to 75 uM after 36 hrs by propidium iodide staining-based flow cytometric analysis; format: functional; conditions: SK-BR-3
[18] = tested on: A-431; experiment: Downregulation of ErbB1 protein expression in human A431 cells in serum free medium at 50 uM after 24 hrs by immunofluorescence staining-based flow cytometric analysis; format: functional
[19] = Antiproliferative activity against human SKBR3 cells overexpressing ErbB in serum-free medium assessed as cell viability after 48 hrs by WST-1 assay; format: functional, cell-based; conditions: SK-BR-3, 48 h
[20] = Antiproliferative activity against human SKBR3 cells overexpressing ErbB in complete medium assessed as cell viability after 48 hrs by WST-1 assay; format: functional, cell-based; conditions: SK-BR-3, 48 h
[21] = tested on: A-431; experiment: Antiproliferative activity against human A431 cells overexpressing ErbB in complete medium assessed as cell viability after 48 hrs by WST-1 assay; format: functional, cell-based; conditions: A-431, 48 h
[22] = tested on: A-431; experiment: Ratio of EC50 for human A431 cells overexpressing ErbB in complete medium to EC50 for human A431 cells overexpressing ErbB in serum-free medium; format: functional
[23] = Cell cycle arrest in human SKBR3 cells assessed as accumulation at G2/M phase at 50 to 75 uM after 36 hrs by propidium iodide staining-based flow cytometric analysis relative to control; format: functional; conditions: SK-BR-3
[24] = tested on: SK-BR-3; experiment: Induction of apoptosis in human SKBR3 cells overexpressing ErbB in complete medium assessed as late apoptotic/necrotic cells at 50 to 75 uM after 72 hrs by annexin V-FITC/7-AAD staining-based flow cytometric analysis; format: functional, cell-based
[25] = tested on: A-431; experiment: Cell cycle arrest in human A431 cells assessed as decrease in accumulation at G0/G1 phase at 50 to 75 uM after 36 hrs by propidium iodide staining-based flow cytometric analysis; format: functional
[26] = tested on: A-431; experiment: Cell cycle arrest in human A431 cells assessed as accumulation at G2/M phase at 50 to 75 uM after 36 hrs by propidium iodide staining-based flow cytometric analysis relative to control; format: functional
[27] = Cell cycle arrest in human SKBR3 cells assessed as decrease in accumulation at G0/G1 phase at 50 to 75 uM after 36 hrs by propidium iodide staining-based flow cytometric analysis; format: functional; conditions: SK-BR-3
[28] = tested on: A-431; experiment: Induction of apoptosis in human A431 cells overexpressing ErbB in complete medium assessed as late apoptotic/necrotic cells at 50 to 75 uM after 72 hrs by annexin V-FITC/7-AAD staining-based flow cytometric analysis; format: functional, cell-based

Chain of Receptor tyrosine-protein kinase erbB-2 (Homo sapiens) (P04626 whole entry): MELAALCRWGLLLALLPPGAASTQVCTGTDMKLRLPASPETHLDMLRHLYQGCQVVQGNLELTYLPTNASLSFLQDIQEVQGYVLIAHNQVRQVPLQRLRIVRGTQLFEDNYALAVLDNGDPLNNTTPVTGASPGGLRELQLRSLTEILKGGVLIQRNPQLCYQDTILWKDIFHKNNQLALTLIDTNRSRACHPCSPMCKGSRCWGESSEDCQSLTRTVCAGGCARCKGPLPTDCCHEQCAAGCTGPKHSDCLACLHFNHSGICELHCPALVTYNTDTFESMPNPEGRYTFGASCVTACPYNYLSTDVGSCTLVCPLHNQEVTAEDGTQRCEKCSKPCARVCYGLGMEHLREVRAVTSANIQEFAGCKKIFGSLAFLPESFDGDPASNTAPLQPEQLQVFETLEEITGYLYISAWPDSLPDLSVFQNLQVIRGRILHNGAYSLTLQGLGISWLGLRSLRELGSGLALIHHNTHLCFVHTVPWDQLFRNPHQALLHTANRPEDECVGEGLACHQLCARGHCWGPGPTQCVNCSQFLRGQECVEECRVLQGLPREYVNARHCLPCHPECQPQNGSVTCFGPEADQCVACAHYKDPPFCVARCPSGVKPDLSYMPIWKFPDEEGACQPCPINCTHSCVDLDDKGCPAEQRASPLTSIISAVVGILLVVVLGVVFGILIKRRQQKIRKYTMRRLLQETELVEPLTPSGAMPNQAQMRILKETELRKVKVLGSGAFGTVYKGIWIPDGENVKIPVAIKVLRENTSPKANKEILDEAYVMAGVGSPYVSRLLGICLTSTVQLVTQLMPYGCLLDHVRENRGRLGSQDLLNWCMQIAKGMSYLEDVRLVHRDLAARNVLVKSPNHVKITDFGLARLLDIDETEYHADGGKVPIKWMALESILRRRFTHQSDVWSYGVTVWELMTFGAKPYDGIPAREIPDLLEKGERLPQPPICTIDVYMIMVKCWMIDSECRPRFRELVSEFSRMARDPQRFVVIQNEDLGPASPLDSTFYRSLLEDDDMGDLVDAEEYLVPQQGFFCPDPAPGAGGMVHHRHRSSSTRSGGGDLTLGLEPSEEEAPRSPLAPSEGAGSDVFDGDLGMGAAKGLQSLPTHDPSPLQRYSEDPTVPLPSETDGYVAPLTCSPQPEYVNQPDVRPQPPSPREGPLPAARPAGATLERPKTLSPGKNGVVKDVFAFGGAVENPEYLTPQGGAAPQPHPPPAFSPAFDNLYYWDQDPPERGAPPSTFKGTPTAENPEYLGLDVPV

Structure (SMILES)	Activity [3]	Activity [5]	Activity [6]	Ratio EC50 [13]	EC50 [14]	Activity [18]	EC50 [19]	EC50 [20]	EC50 [21]	Ratio EC50 [22]	further results
O=C(O[C@@H]1Cc2c(O)cc(O)cc2O[C@@H]1c1cc(O)c(O)c(O)c1)c1cc(O)c(O)c(O)c1 [EPIGALOCATECHIN GALLATE]	30%	Active	Active	2	38 µM	30%	100 µM	195 µM	266 µM	2	Activity [1]: Active; Activity [2]: 80%; Activity [4]: inactive; Activity [7]: inactive; Activity [8]: Active; Activity [9]: Active; Activity [10]: inactive; Activity [11]: 40%; inhibition [12]: 47%; Activity [15]: inactive; Activity [16]: Active; Activity [17]: inactive
O=c1c(-c2ccc(O)cc2)coc2cc(O)cc(O)c12 [GENISTEIN]	inactive	inactive	inactive	2	108 µM	inactive	97 µM	403 µM	278 µM	2	Activity [23]: 50%; Activity [24]: inactive; Activity [25]: Active; Activity [26]: Active; Activity [27]: Active; Activity [28]: Active
